Results reported in ChEMBL document CHEMBL4699515, “Staprexanthones, Xanthone-Type Stimulators of Pancreatic β-Cell Proliferation from a Mangrove Endophytic Fungus” (J Nat Prod, 2020).
Calls of active or inactive are those of the source. No cut-off for these calls is given here.

Experiments:
INS1(832/13) [1] = assay: Induction of cell cycle progression at G1/S transition in rat INS-1 832/13 cells assessed as decrease in p21 mRNA expression at 10 uM after 24 hs by qRT-PCR analysis; type: functional, cell-based; details: time 24.0 hrs
INS1(832/13) [2] = assay: Induction of cell proliferation in rat INS-1 832/13 cells after 24 hrs by CCK8 assay; type: functional, cell-based
INS1(832/13) [3] = assay: Induction of cell cycle progression at G1/S transition in rat INS-1 832/13 cells assessed as increase in Cyclin E mRNA expression at 10 uM after 24 hs by qRT-PCR analysis; type: functional, cell-based; details: time 24.0 hrs
INS1(832/13) [4] = assay: Induction of cell cycle progression at G1/S transition in rat INS-1 832/13 cells assessed as decrease in p27 mRNA expression at 10 uM after 24 hs by qRT-PCR analysis; type: functional, cell-based; details: time 24.0 hrs
[5] = Induction of beta cells proliferation in 6 days post fertilize Tg(-1.2ins:H2BmCherry)Tg(ins:mAG-zGeminin(1/100)) zebra fish larvae assessed as increase in beta cell proliferation at 25 uM after 24 hrs by confocal microscopic method relative to control; type: functional, Danio rerio, Pancreatic beta cell
INS1(832/13) [6] = assay: Induction of cell cycle progression at G1/S transition in rat INS-1 832/13 cells assessed as increase in Cdk 2 mRNA expression at 10 uM after 24 hs by qRT-PCR analysis; type: functional, cell-based; details: time 24.0 hrs
Pancreatic beta cell [7] = assay: Induction of beta cells proliferation in 6 days post fertilize Tg(-1.2ins:H2BmCherry)/TgBAC(neurod1:eGFP) zebra fish larvae at 10 uM after 24 hrs by confocal microscopic method; type: functional, tissue-based; details: Danio rerio
[8] = Toxicity in 6 days post fertilize Tg(-1.2ins:H2BmCherry)Tg(ins:mAG-zGeminin(1/100)) zebra fish beta cells at 50 uM after 24 hrs by confocal microscopic method; type: tissue-based, Danio rerio; details: zebrafish, pancreatic beta cell
[9] = Induction of beta cells proliferation in 6 days post fertilize Tg(-1.2ins:H2BmCherry)Tg(ins:mAG-zGeminin(1/100)) zebra fish larvae assessed as number of replicated beta cells at 10 uM after 24 hrs by confocal microscopic method (reference value: 1.7 +/- 0.5); type: functional, Danio rerio, Pancreatic beta cell
[10] = Induction of beta cells proliferation in 5 days post fertilize Tg(-1.2ins:H2BmCherry) zebra fish larvae assessed as beta cell number at 10 uM after 24 hrs by confocal microscopic method (reference value: 35 +/- 1); type: functional, Danio rerio, Pancreatic beta cell
Pancreatic beta cell [11] = assay: Induction of beta cells proliferation in 6 days post fertilize Tg(-1.2ins:H2BmCherry)Tg(ins:mAG-zGeminin(1/100)) zebra fish larvae assessed as increase in beta cell proliferation after 24 hrs by confocal microscopic method; type: functional; details: Danio rerio, dose microM 5-25, time 24.0 hrs
INS1(832/13) [12] = assay: Induction of cell cycle progression at G1/S transition in rat INS-1 832/13 cells assessed as increase in Cdk 4 mRNA expression at 10 uM after 24 hs by qRT-PCR analysis; type: functional, cell-based; details: time 24.0 hrs
Pancreatic beta cell [13] = assay: Induction of beta cells proliferation in 6 days post fertilize Tg(-1.2ins:H2BmCherry)Tg(ins:mAG-zGeminin(1/100)) zebra fish larvae assessed as increase in total beta cells after 24 hrs by confocal microscopic method; type: functional; details: Danio rerio, dose microM 5-25, time 24.0 hrs
Pancreatic beta cell [14] = assay: Induction of beta cells proliferation in 6 days post fertilize Tg(-1.2ins:H2BmCherry)Tg(ins:mAG-zGeminin(1/100)) zebra fish larvae assessed as increase in beta cells at 50 uM after 24 hrs by confocal microscopic method relative to control; type: functional; details: Danio rerio
Pancreatic beta cell [15] = assay: Induction of beta cells proliferation in 6 days post fertilize Tg(-1.2ins:H2BmCherry)/Tg(gcga:eGFP) zebra fish larvae at 10 uM after 24 hrs by confocal microscopic method; type: functional; details: Danio rerio
Pancreatic beta cell [16] = assay: Induction of beta cells proliferation in 6 days post fertilize Tg(-1.2ins:H2BmCherry)Tg(ins:mAG-zGeminin(1/100)) zebra fish larvae assessed as increase in total beta cells at 5 to 10 uM after 24 hrs by confocal microscopic method; type: functional; details: Danio rerio, dose microM 5-10, time 24.0 hrs
Pancreatic beta cell [17] = assay: Induction of beta cells proliferation in 6 days post fertilize Tg(-1.2ins:H2BmCherry)Tg(ins:mAG-zGeminin(1/100)) zebra fish larvae assessed as increase in beta cell proliferation at 5 to 10 uM after 24 hrs by confocal microscopic method; type: functional; details: Danio rerio, dose microM 5-10, time 24.0 hrs
Pancreatic beta cell [18] = assay: Induction of beta cells proliferation in 6 days post fertilize Tg(-1.2ins:H2BmCherry)Tg(ins:mAG-zGeminin(1/100)) zebra fish larvae assessed as increase in beta cell proliferation at 25 to 50 uM after 24 hrs by confocal microscopic method; type: functional; details: Danio rerio, dose microM 25-50, time 24.0 hrs
Pancreatic beta cell [19] = assay: Induction of beta cells proliferation in 6 days post fertilize Tg(-1.2ins:H2BmCherry)Tg(ins:mAG-zGeminin(1/100)) zebra fish larvae assessed as increase in total beta cells at 25 to 50 uM after 24 hrs by confocal microscopic method; type: functional, cell-based; details: Danio rerio, dose microM 25-50, time 24.0 hrs

| Compound | Activity (INS1(832/13) [1]) | Activity (INS1(832/13) [2]) | Activity (INS1(832/13) [3]) | Activity (INS1(832/13) [4]) | Activity [5] | Activity (INS1(832/13) [6]) | Activity (Pancreatic beta cell [7]) | Activity [8] | Activity [9] | Activity [10] | Activity (Pancreatic beta cell [11]) | Activity (INS1(832/13) [12]) | Activity (Pancreatic beta cell [13]) | Activity (Pancreatic beta cell [14]) | Activity (Pancreatic beta cell [15]) | Activity (Pancreatic beta cell [16]) | Activity (Pancreatic beta cell [17]) | Activity (Pancreatic beta cell [18]) | Activity (Pancreatic beta cell [19]) |
| --- | --- | --- | --- | --- | --- | --- | --- | --- | --- | --- | --- | --- | --- | --- | --- | --- | --- | --- | --- |
| C=CC(C)(C)c1c(C)c(CC=C(C)C)c(O)c2c(=O)c3c(CO)cccc3oc12 | Active | Active | Active | Active | 10% | Active | Active | Toxic | 3.6 | 40 | Dose-dependent effect | Active | Dose-dependent effect | inactive | Active | – | – | – | – |
| CC(C)=CCc1c(C)cc2oc3cccc(C4O[C@H](C)[C@@H](C)O4)c3c(=O)c2c1O | – | – | – | – | – | – | – | – | – | 39 | – | – | – | – | – | – | – | – | – |
| C[C@]12C=CC(=O)C=C1CC[C@@H]1[C@@H]2[C@@H](O)C[C@@]2(C)[C@H]1CC[C@]2(O)C(=O)CO [PREDNISOLONE] | – | – | – | – | – | – | – | – | – | 40 | – | – | – | – | – | – | – | – | – |
| C=CC(C)(C)c1cc(CC=C(C)C)c(O)c2c(=O)c3c(CO)cc(C)cc3oc12 | Active | Active | Active | Active | – | Active | Active | Toxic | 4.3 | 40 | – | Active | – | – | Active | Dose-dependent effect | Dose-dependent effect | inactive | inactive |
